Test results taken from patent US5089516A, “1-phenyl-3,5-pyrazolidinedione hydroxystyrene compounds which have tyrosine kinase inhibiting activity” (Kanegafuchi Kagaku Kogyo Kabushiki Kaisha, priority 1987, dated 1992).
Converted amounts (≈) assume the structure as drawn. “And” between values parts separate entries of the source, which are not always exact repeats. Equal values may be shown once.

Columns and labels:
[1] = tested on: Nycobacterium smegmatis ATCC 607; assay: Antibacterial activity (MIC) against acid-fast bacteria; format: cell-based; settings: 37° C., 40 to 42 hours
Procedure: As for acid-fast bacteria, after cultured in glycerol broth medium, there was prepared a bacterial suspension for inoculation containing about 10^6 of the bacteria per 1 ml of the medium. On the other hand, there were prepared some glycerol Czapek agar plating media with adding the test compounds, and thereto the bacterial suspension for inoculation was streaked.

[2] = target: T1, epidermal growth factor receptor-tyrosine kinase complex (Homo sapiens, UniProt P00533); assay: Tyrosine kinase inhibiting activity (A-431 membrane preparation, EGF-stimulated); format: biochemical; settings: 1 μM in the reaction mixture; read-out: Tyrosine kinase inhibition rate
T1 construct: The membrane preparation was employed in the following measurement without solubilization; endogenous in cells; host or cells: A-431 (ATCC CRL1555), membrane preparation, not solubilized
T1 sequence (P00533 25-1210, one chain of several): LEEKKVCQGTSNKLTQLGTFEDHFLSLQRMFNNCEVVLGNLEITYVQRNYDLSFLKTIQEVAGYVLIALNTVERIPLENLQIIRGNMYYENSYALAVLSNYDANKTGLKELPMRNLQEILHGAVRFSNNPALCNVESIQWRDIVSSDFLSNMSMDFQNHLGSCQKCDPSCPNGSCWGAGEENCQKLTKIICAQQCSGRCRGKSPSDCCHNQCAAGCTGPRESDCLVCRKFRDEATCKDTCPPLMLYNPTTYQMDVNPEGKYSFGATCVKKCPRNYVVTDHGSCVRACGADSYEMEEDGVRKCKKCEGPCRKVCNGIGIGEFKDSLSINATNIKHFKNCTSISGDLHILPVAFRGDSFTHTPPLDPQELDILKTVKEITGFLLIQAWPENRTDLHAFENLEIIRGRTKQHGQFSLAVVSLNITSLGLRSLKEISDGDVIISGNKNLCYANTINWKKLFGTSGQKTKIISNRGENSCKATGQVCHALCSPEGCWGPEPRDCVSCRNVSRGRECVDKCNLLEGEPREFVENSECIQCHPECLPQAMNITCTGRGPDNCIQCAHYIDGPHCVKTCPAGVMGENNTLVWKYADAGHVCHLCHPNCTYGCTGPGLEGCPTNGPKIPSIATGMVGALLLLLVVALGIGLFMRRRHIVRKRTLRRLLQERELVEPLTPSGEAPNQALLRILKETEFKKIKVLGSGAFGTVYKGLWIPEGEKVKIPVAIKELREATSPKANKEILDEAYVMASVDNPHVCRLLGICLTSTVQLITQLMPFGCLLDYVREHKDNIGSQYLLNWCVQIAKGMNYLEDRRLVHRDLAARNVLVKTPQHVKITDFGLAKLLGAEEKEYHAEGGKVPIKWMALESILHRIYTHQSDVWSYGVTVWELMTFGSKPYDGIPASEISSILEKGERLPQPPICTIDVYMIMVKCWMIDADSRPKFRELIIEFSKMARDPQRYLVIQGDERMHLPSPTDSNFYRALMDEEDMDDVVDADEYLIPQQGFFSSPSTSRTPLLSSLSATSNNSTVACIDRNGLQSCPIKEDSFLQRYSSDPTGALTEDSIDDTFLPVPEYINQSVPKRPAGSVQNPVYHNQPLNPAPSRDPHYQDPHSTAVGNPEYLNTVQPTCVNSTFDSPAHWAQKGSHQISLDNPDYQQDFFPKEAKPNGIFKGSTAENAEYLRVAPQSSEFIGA
Procedure: Tyrosine kinase inhibiting activity of the compound of the present invention was measured referring to a method for measuring tyrosine kinase activity by G. Carpenter or by S. Cohen et al. [J. Biol. Chem., 254, 4884(1979); J. Biol. Chem., 257, 1528(1982)].
Cell line A-431 derived from human carcinoma (ATCC CRL1555) was cultured at 37° C. under the condition of 5% CO2 in Dulbecco's modified Eagle's medium (made by NISSUE PHARMACEUTICAL CO., LTD.) containing 10% by volume fetal bovine serum, 50 μg/ml of streptomycin, 50 IU/ml of penicillin G and 50 μg/ml of kanamycin. […] The membrane preparation was employed in the following measurement without solubilization.
A test compound dissolved in dimethylsulfoxide (hereinafter referred to as "DMSO") was added to a mixture of 20 mM of N-2-hydroxyethylpiperazine-N'-2-ethanesulfonic acid buffer (pH 7.4), 1 mM of MnCl2, 7.5 μg of bovine serium albumin and the membrane preparation (10 μg as protein). After incubation at 0° C. for 5 minutes, 100 ng of epidermal growth factor (hereinafter referred to as "EGF") was added thereto and the mixture was further incubated at 0° C. for 15 minutes. [γ-^32 P]ATP (3000 Ci/mmol, 0.1 μCi) was added thereto to make final volume of 70 μl. After incubation at 0° C. for 15 minutes, 50 μl of the reaction mixture was soaked into Whatman 3 MM filter paper (made by Whatman Ltd.) and immediately the reaction was stopped by an aqueous solution of 10% by weight trichloroacetic acid containing 10 mM sodium pyrophosphate. The filter paper was sufficiently washed with the same solution and then washed with ethanol, and dried. Radioactivity present in the filter paper was measured by liquid scintillation counter (A). Also, radioactivity was measured in case of the reaction without EGF (B), the reaction without the test compound (C), and the reaction without both EGF and the test compound (D) as a control.
Tyrosine kinase inhibition rate (%) was calculated by the following equation. [formula]

[3] = tested on: Bacillus subtilis IFO 3134; assay: Antibacterial activity (MIC) against Bacillus subtilis IFO 3134; format: cell-based; settings: IFO3134, 37° C., 18 to 20 hours
Procedure: (§1) The antibacterial activity against Gram-positive bacteria of the compound of the present invention was measured according to a standard method of Nippon Kagaku Ryoho Gakkai [Nippon Kagaku Ryoho Gakkaishi (Journal of the Chemical therapy of Japan), 29, 76(1981)].
(§2) As for gram-positive bacteria, after cultivation in Meuller Hinton broth medium (made by Difco Co., Ltd.), there was prepared a bacterial suspension for inoculation containing about 10^6 of the bacteria per 1 ml of the Meuller Hinton broth medium. On the other hand, the test compound was added to Mueller Hinton agar medium (made by Difco Co., Ltd.) so as to give agar plate medium containing test samples which are twofold serial diluted. Then, the above-mentioned bacterial suspension for inoculation was streaked to each agar medium for about 2 cm with a looped nichrome wire (inner diameter: about 1 mm).
(§3) After that the each agar plate medium was cultured at 37° C. for 18 to 20 hours, the growth of the test bacteria was determined.

[4] = tested on: Staphylococcus aureus IFO 12732; assay: Antibacterial activity (MIC) against Staphylococcus aureus IFO 12732; format: cell-based; settings: IFO12732, 37° C., 18 to 20 hours
Procedure: as §1, §2, §3

[5] = target: T2, reverse transcriptase derived from Moloney-Murine Leukemia Virus (M-MLV) (Moloney murine leukemia virus, UniProt P03355); assay: Inhibiting activity against reverse transcriptase derived from M-MLV; format: biochemical; settings: read-out: Inhibition rate (reverse transcriptase derived from M-MLV); for inhibition at 1 µM: 1 μM in the reaction mixture
T2 construct: reverse transcriptase derived from Moloney-Murine Leukemia Virus; purchased Pharmacia K. K
Procedure: There was found the following point by using reverse transcriptase derived from Moloney-Murine Leukemia Virus (hereinafter referred to as "M-MLV").
The compound of the present invention was dissolved in DMSO to give a 100 mM solution thereof. Then, the solution was diluted with distilled water containing DMSO to give a solution of the test compound having a defined concentration. A mixed ratio of DMSO and distilled water was adjusted so that the concentration of DMSO at this time is 10% by volume and a final concentration of DMSO at the beginning of a reaction is 1% by volume.
The thus prepared solution of the test compound was mixed with a solution containing 50 mM of Tris--HCl buffer (pH 8.3), 8 mM of MgCl2, 30 mM of NaCl, 50 mM of dithiothreitol (made by Wako Pure Chemical Industries Ltd.), 0.2 mM of thymidine-5'-triphosphate (made by Pharmacia K. K.) and 6 U/ml of reverse transciptase derived from M-MLV (made by Pharmacia K. K.), and preincubated at 37° C. for 30 minutes. After there was added thereto 10 μg/ml of polyadenylic acid (made by PL Biochemicals Co., Ltd.), 0.01 U/ml of oligodeoxy thymidylic acid (made by Pharmacia K. K.) and 10 μCi/ml of [methyl-^3 H] thymidine-5'-triphosphate (made by Amersham Japan Co., Ltd., 47 Ci/mmol) to give a reaction mixture, the mixture was further incubated at 37° C. for 30 minutes, followed by cooling with ice to stop the reaction.
The radioactivity incorporated into deoxyribonucleic acids was measured according to the method of Linteril et al (Science 170, 447 to 449 (1967)). A defined volume of the reaction mixture was soaked into DE-81 filter paper (made by Whatman Ltd.), the filter paper was washed with 5% by weight of Na2 HPO4 solution for three times, and with distilled water and ethanol successively, and then dried. Radioactivity contained in the filter paper was measured by liquid scintillation counter to give the each radioactivity of the test solution groups.
On the other hand, the same procedure as above was carried out using DMSO-distilled water without the test compound instead of using the test solution, to give the value of radioactivity of a control group.
Reverse transcriptase derived from M-MLV inhibition rate (%) was calculated by the following equation. [formula]

[6] = tested on: Micrococcus luteus IFO 13867; assay: Antibacterial activity (MIC) against Micrococcus luteus IFO 13867; format: cell-based; settings: IFO13867, 37° C., 18 to 20 hours
Procedure: as §1, §2, §3

UV absorption spectrum = format: physicochemical; settings: in methanol; for molar extinction coefficient: at the λ max of the same line
Procedure: Each UV absorption spectrum of the compounds of the present invention was measured according to the conventional method, in which methanol was used as a solvent, and thereby molar extinction coefficient thereof was calculated.

5-lipoxygenase = target: T3, 5-lipoxygenase (Cavia porcellus, UniProt A0A286X958); assay: 5-Lipoxygenase inhibiting activity (5-HETE formation, cytosol of peritoneal exudate cells); format: biochemical, Hartley guinea pigs; settings: 10 μM in the reaction mixture; read-out: Inhibition rate (5-lipoxygenase)
T3 construct: The cytosol fraction was used as an enzyme solution; from tissue; host or cells: peritoneal exudate cells of casein-injected Hartley guinea pigs, 105,000×g cytosol
T3 sequence (A0A286X958 1-674): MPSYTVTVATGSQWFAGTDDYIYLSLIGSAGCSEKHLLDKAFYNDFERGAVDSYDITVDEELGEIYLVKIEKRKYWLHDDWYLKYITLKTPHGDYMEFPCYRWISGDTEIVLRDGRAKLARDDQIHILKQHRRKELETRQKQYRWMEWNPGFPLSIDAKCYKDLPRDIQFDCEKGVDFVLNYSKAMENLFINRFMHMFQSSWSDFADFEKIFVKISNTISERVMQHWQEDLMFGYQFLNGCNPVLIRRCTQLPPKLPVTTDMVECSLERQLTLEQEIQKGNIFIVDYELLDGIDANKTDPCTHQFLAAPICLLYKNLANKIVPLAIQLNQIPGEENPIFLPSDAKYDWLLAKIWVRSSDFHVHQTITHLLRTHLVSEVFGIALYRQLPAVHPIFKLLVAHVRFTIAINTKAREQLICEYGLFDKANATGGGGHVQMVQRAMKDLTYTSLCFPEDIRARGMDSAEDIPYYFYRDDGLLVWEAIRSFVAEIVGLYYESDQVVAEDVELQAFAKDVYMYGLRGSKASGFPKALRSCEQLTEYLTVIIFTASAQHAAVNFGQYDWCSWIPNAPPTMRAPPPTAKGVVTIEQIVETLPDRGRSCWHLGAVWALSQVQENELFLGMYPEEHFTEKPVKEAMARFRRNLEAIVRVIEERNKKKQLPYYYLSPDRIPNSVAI
Procedure: 5-Lipoxygenase inhibiting activity of the compound of the present invention was measured referring to the method for measuring 5-lipoxygenase activity by K. Ochi et al. [Journal of Biological Chemistry (J. Biol. Chem.), 258, 5754(1983)].
Sterilized 2% solution of casein (pH 7) was injected intraperitoneally into Hartley guinea pigs in a volume of 5 ml/100 g body weight. Fifteen hours later, the guinea pigs were killed and peritoneal exudate cells thereof were collected. After the exudate cells were washed with 17 mM Tris--HCl buffer (pH 7.4) containing 0.74% ammonium to remove contaminating erythrocytes in the exudate cells suspension, the cells were washed with buffer A (130 mM NaCl, 1 mM EDTA, 25 mM sodium phosphate, pH 7.4). The washed cells were suspended in buffer B (50 mM sodium phosphate, 1 mM EDTA, 0.1% gelatin, pH 7.4) at 10^8 cells/ml, sonicated and centrifuged at 10,000×g for 20 minutes under the cold atmosphere. The obtained supernatant was further centrifuged at 105,000×g for 60 minutes under the cold atmosphere. The cytosol fraction was used as an enzyme solution.
The enzyme solution was preincubated with the […] in the presence of 1 mM CaCl2, 1 mM reduced gluthathione (GSH) and 2 mM ATP at 30° C. for 5 minutes in 0.2 ml of a reaction mixture and the mixture was further incubated at 30° C. for 5 minutes by adding 20 μM [1-^14 C] arachidonic acid (0.1 μCi) thereto. The test compounds were dissolved in ethanol to give the reaction mixture containing 2% ethanol as a final concentration. Only ethanol was added to the reaction mixture as a control group.
To the reaction mixture were added 2.5 ml of a mixture of chloroform and methanol (2/1 by volume) and 0.3 ml of 40 mM citric acid to stop the reaction. The mixture was vortexed and an organic solvent layer was evaporated to dryness under nitrogen gas. After dissolving the dried organic layer in a fixed amount of the mixture of chloroform and methanol (2/1 by volume), it was spotted on a silica gel plate (Kiesel gel 60F254, E. Merck) and products were separated using a developer (the organic solvent layer of ethyl acetate/water/2,2,4-trimethylpentane/acetic acid=11/10/5/2 by volume). After the radioactive position of the product was determined by means of a radioautography, an area equivalent to that of 5-hydroxyeicosatetraenoic acid (hereinafter referred to as "5-HETE") was scraped off, and then its radioactivity was measured with a liquid scintillation counter. With regarding the amount of the generated 5-HETE as the 5-lipoxygenase inhibiting activity, the inhibition rate (%) in comparison with the control group was calculated according to the following equation. [formula]

Question: With `N#CC(=Cc1cc(-c2ccccc2)c(O)c(-c2ccccc2)c1)C(N)=O` [Compound 15] as the compound, how does the MIC [1] read?
Answer: ≤ 15 µg/mL

Question: What about the inhibition at 1 µM [2] of the same compound?
Answer: 100%

Question: And the MIC [3]?
Answer: 100 µg/mL (≈ 294 µM)

Question: What about the MIC [4] of the same compound?
Answer: 60 µg/mL (≈ 176 µM)

Question: And the inhibition at 10 µM ([5]; 10 μM in the reaction mixture)?
Answer: 59%

Question: And the MIC [6]?
Answer: 60 µg/mL (≈ 176 µM)

Question: What about the λ max (UV absorption spectrum) of the same compound?
Answer: 271 nm and 348 nm

Question: What about the molar extinction coefficient (UV absorption spectrum) of the same compound?
Answer: 2.04 × 10^4 and 2.11 × 10^4

Question: Which inhibition at 1 µM [2] does the source give for `O=C1Nc2ccccc2C1=Cc1cc(Cc2ccccc2)c(O)c(Cc2ccccc2)c1` [Compound 4] here?
Answer: 74%

Question: What about the inhibition at 10 µM (5-lipoxygenase) of the same compound?
Answer: 85%

Question: And the MIC [6]?
Answer: ≤ 6 µg/mL

Question: What about the λ max (UV absorption spectrum) of the same compound?
Answer: 257 nm and 361 nm

Question: What about the molar extinction coefficient (UV absorption spectrum) of the same compound?
Answer: 1.87 × 10^4 and 1.80 × 10^4

Question: What does the source list for `O=C1NCCC1=Cc1cc(Cc2ccccc2)c(O)c(Cc2ccccc2)c1` [Compound 18]?
Answer: inhibition at 1 µM [2]: 87%; λ max (UV absorption spectrum): 304 nm; molar extinction coefficient (UV absorption spectrum): 1.87 × 10^4

Question: With `O=C1NC(=S)SC1=Cc1cc(-c2ccccc2)c(O)c(-c2ccccc2)c1` [Compound 1] as the compound, how does the MIC [1] read?
Answer: 6 µg/mL (≈ 15.4 µM)

Question: And the inhibition at 1 µM [2]?
Answer: 23%

Question: What about the MIC [3] of the same compound?
Answer: ≤ 6 µg/mL

Question: What about the MIC [4] of the same compound?
Answer: 12 µg/mL (≈ 30.8 µM)

Question: And the inhibition at 1 µM [5]?
Answer: 96%

Question: And the MIC [6]?
Answer: ≤ 6 µg/mL

Question: With `O=C1NN(c2ccccc2)C(=O)C1=Cc1cc(-c2ccccc2)c(O)c(-c2ccccc2)c1` [Compound 19] as the compound, how does the MIC [1] read?
Answer: ≤ 6 µg/mL

Question: And the inhibition at 1 µM [2]?
Answer: 74%

Question: And the MIC [3]?
Answer: 100 µg/mL (≈ 231 µM)

Question: And the MIC [4]?
Answer: 100 µg/mL (≈ 231 µM)

Question: And the inhibition at 1 µM [5]?
Answer: 75%

Question: What about the MIC [6] of the same compound?
Answer: 50 µg/mL (≈ 116 µM)

Question: For `N#CC(=Cc1cc(Cc2ccccc2)c(O)c(Cc2ccccc2)c1)C(N)=O` [Compound 16], which MIC [1] is on record?
Answer: ≤ 15 µg/mL

Question: What about the inhibition at 1 µM [2] of the same compound?
Answer: 100%

Question: And the inhibition at 10 µM (5-lipoxygenase)?
Answer: 28%

Question: What about the MIC [3] of the same compound?
Answer: ≤ 15 µg/mL

Question: And the MIC [4]?
Answer: ≤ 15 µg/mL

Question: And the MIC [6]?
Answer: ≤ 15 µg/mL

Question: What about the λ max (UV absorption spectrum) of the same compound?
Answer: 249 nm and 347 nm

Question: And the molar extinction coefficient (UV absorption spectrum)?
Answer: 1.51 × 10^4 and 2.40 × 10^4
